From ChEMBL document CHEMBL2062512, “Metronidazole thiosalicylate conjugates: synthesis, crystal structure, docking studies and antiamoebic activity” (Bioorg Med Chem Lett, 2012)
pIC50: −log10 of the molar value.

Experiments:
[1] = test system: Entamoeba histolytica; test: […] activity against Entamoeba histolytica HM-1:IMSS after 72 hrs by eosin-staining method; format: functional, organism-based
[2] = test system: MCF7; test: Cytotoxicity against human MCF7 cells after 48 hrs by MTT assay; format: cell-based; conditions: MCF7, 48 h

Row | SMILES | pIC50 [1] | pIC50 [2]
1 | COC(=O)c1ccccc1SCCn1c([N+](=O)[O-])cnc1C | 7.55 | < 3.60
2 | COC(=O)c1ccccc1[S+]([O-])CCn1c([N+](=O)[O-])cnc1C (configuration not stated) | 7.82 | < 3.60
3 | COC(=O)c1ccccc1S(=O)(=O)CCn1c([N+](=O)[O-])cnc1C | 7.68 | < 3.60
4 | Cc1ncc([N+](=O)[O-])n1CCO [METRONIDAZOLE] |  | < 3.60
